Test results published in patent US20240239790A1, “7-Morpholino-1,6-Naphthyridin-5-yl Derivatives and Pharmaceutical Compositions Thereof Useful as DNA-PK Inhibitor” (adMare Therapeutics Society, priority 2021, published 2024).
Like-named read-outs stand apart in the source and are kept apart here.

Legend:
[1] = biological target: T1, DNA-PK (Homo sapiens, UniProt P78527); experiment: DNA-PK Assay for Biochemical Enzymatic Inhibition (ADP Glo Kinase assay); details: DNA-PK enzyme, Table 1
T1 construct: purchased Invitrogen PR9107A
Method in brief: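 Human DNA-PK (25 ng) preincubated 15 min with compounds (ten three-fold dilutions) in HEPES pH 7.5, MgCl2, KCl, calf thymus DNA buffer, then substrate 434.4 μM and ATP 64.4 μM (final) for 60 min at room temperature. ADP-Glo luminescence; percent inhibition fitted by four-parameter regression for IC50.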

[2] = tested on: pDNA-PK induction in HCT116 tumour spheroids; experiment: Multicellular tumour spheroid + radiation, pDNA-PK (ser2056) inhibition, immunohistochemical endpoint, HCT116; type: cell-based; details: Homo sapiens, 20 Gy, 20% O2
Method in brief: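 HCT116 spheroids (~0.5 mm) in MEM/10% FBS, 20% O2, 37° C., pre-incubated 1 h with compound (10 or 5 μM down to 3.5 nM), irradiated 20 Gy, then 2 h further with compound. Cryosections immunostained for pDNA-PK ser2056; EC50 is concentration halving radiation-induced pDNA-PK.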

[3] = Hepatocyte Stability Assay, human hepatocytes; type: in vitro ADME; details: for hepatocyte CLint at 1 uM: both sexes, cryopreserved hepatocytes, pH 7.3, human hepatocytes 0.7 million cells per mL, 1 uM compound; for Hepatocyte Stability Human % rem. 120 min: human hepatocytes
Method: (§1) Cryopreserved mouse hepatocytes were obtained from a pool of 10 or more male CD-1 mice. Cryopreserved human hepatocytes were obtained from a pool of 10 or more donors of mixed gender. Final hepatocyte density was 0.7 million viable cells per mL and test compound concentration was 1 uM with a maximum of 0.01% DMSO. Cryopreserved hepatocytes were thawed, washed, and resuspended in Krebs-Heinslet buffer (pH 7.3). The reaction was initiated by adding the test compound into cell suspension and incubated for 0, […], 1, 1.5, and 2 h, respectively, at 37° C./5% C02. The reaction was stopped by adding acetonitrile into the incubation mixture. Samples were then mixed, transferred completely to another 96-well plate, and centrifuged. Supernatants were used for HPLC-MS/MS analysis. […] Peak areas corresponding to the test compound were recorded.

[4] = Hepatocyte Stability Assay, mouse hepatocytes; type: in vitro ADME; details: for hepatocyte CLint at 1 uM: male, CD-1, cryopreserved hepatocytes, pH 7.3, mouse hepatocytes 0.7 million cells per mL, 1 uM compound; for Hepatocyte Stability Mouse % rem. 120 min: mouse hepatocytes
Method: as §1

[5] = HCT-116, 2 h, spheroids, Example 8, read-out: Cell line: HCT116 Immunohistochemical endpoint pDNA-PK inhibition EC50
[6] = HCT-116, 2 hours following radiation, Example 9 Study 2, read-out: Spheroid Cell line: HCT116 Immunohistochemical endpoint pDNA-PK inhibition EC50
[7] = HCT-116, Spheroid, Cell Line: HCT115 (so in the source), 2 hours following radiation, Example 7, read-out: EC50, Immunohistochemical endpoint, pDNA-PK inhibition

SMILES | IC50 [1] [nM] | EC50 [2, 5] [nM] | EC50 [2, 6] [nM] | EC50 [2, 7] [nM] | hepatocyte CLint at 1 uM [3] [µL/min/1e6 cells] | Hepatocyte Stability Human % rem. 120 min [3] | hepatocyte CLint at 1 uM [4] [µL/min/1e6 cells] | Hepatocyte Stability Mouse % rem. 120 min [4]
CN(C)C(=O)COc1cnc(N[C@H]2CC[C@@H](Oc3nc(N4CCOCC4)cc4ncccc34)CC2)nc1 [Compound 54, N,N-Dimethyl-2-((2-(((1s,4s)-4-((7-morpholino-1,6-naphthyridin-5-yl)oxy)cyclohexyl)amino)pyrimidin-5-yl)oxy)acetamide] | 0.5 to 1 | 10 to 500 | 10 to 500 | 10 to 500 | < 8.2 | F (% remaining = 25-50%) | < 8.2 | G (% remaining = 50-75%)
O=C(COc1cnc(N[C@H]2CC[C@@H](Oc3nc(N4CCOCC4)cc4ncccc34)CC2)nc1)N1CCOCC1 [Compound 61, 1-Morpholino-2-((2-(((1s,4s)-4-((7-morpholino-1,6-naphthyridin-5-yl)oxy)cyclohexyl)amino)pyrimidin-5-yl)oxy)ethan-1-one] | 0.5 to 1 | – | 10 to 500 | 10 to 500 | < 8.2 | G (% remaining = 50-75%) | < 8.2 | G (% remaining = 50-75%)
CN1CCN(C(=O)COc2cnc(N[C@H]3CC[C@@H](Oc4nc(N5CCOCC5)cc5ncccc45)CC3)nc2)CC1 [Compound 62, 1-(4-Methylpiperazin-1-yl)-2-((2-(((1s,4s)-4-((7-morpholino-1,6-naphthyridin-5-yl)oxy)cyclohexyl)amino)pyrimidin-5-yl)oxy)ethan-1-one] | < 0.5 | – | 500 to 1000 | 500 to 1000 | > 8.2 | F (% remaining = 25-50%) | < 8.2 | H (% remaining = 75-100%)
O=C(COc1cnc(N[C@H]2CC[C@@H](Oc3nc(N4CCOCC4)cc4ncccc34)CC2)nc1)N1CCNCC1 [Compound 63, 2-((2-(((1s,4s)-4-((7-Morpholino-1,6-naphthyridin-5-yl)oxy)cyclohexyl)amino)pyrimidin-5-yl)oxy)-1-(piperazin-1-yl)ethan-1-one] | < 0.5 | – | 1000 to 10000 | 1000 to 10000 | > 8.2 | F (% remaining = 25-50%) | < 8.2 | H (% remaining = 75-100%)
CN(C)CCOc1cnc(N[C@H]2CC[C@@H](Oc3nc(N4CCOCC4)cc4ncccc34)CC2)nc1 [Compound 64, 5-(2-(Dimethylamino)ethoxy)-N-((1s,4s)-4-((7-morpholino-1,6-naphthyridin-5-yl)oxy)cyclohexyl)pyrimidin-2-amine] | < 0.5 | 10 to 500 | 10 to 500 | 10 to 500 | – | – | < 8.2 | G (% remaining = 50-75%)
NCCOc1cnc(N[C@H]2CC[C@@H](Oc3nc(N4CCOCC4)cc4ncccc34)CC2)nc1 [Compound 65, 5-(2-Aminoethoxy)-N-((1s,4s)-4-((7-morpholino-1,6-naphthyridin-5-yl)oxy)cyclohexyl)pyrimidin-2-amine] | < 0.5 | – | 1000 to 10000 | 1000 to 10000 | < 8.2 | F (% remaining = 25-50%) | < 8.2 | G (% remaining = 50-75%)
CC(=O)NCCOc1cnc(N[C@H]2CC[C@@H](Oc3nc(N4CCOCC4)cc4ncccc34)CC2)nc1 [Compound 66] | 0.5 to 1 | – | 1000 to 10000 | 1000 to 10000 | < 8.2 | G (% remaining = 50-75%) | < 8.2 | F (% remaining = 25-50%)
c1cnc2cc(N3CCOCC3)nc(O[C@H]3CC[C@@H](Nc4ncc(OCCN5CCOCC5)cn4)CC3)c2c1 [Compound 68, N-((1s,4s)-4-((7-Morpholino-1,6-naphthyridin-5-yl)oxy)cyclohexyl)-5-(2-morpholinoethoxy)pyrimidin-2-amine] | < 0.5 | – | 500 to 1000 | 500 to 1000 | > 8.2 | F (% remaining = 25-50%) | < 8.2 | G (% remaining = 50-75%)
CN1CCN(CCOc2cnc(N[C@H]3CC[C@@H](Oc4nc(N5CCOCC5)cc5ncccc45)CC3)nc2)CC1 [Compound 69, 5-(2-(4-Methylpiperazin-1-yl)ethoxy)-N-((1s,4s)-4-((7-morpholino-1,6-naphthyridin-5-yl)oxy)cyclohexyl)pyrimidin-2-amine] | < 0.5 | – | 1000 to 10000 | 1000 to 10000 | < 8.2 | G (% remaining = 50-75%) | < 8.2 | H (% remaining = 75-100%)
CNC(=O)COc1cnc(N[C@H]2CC[C@@H](Oc3nc(N4CCOCC4)cc4ncccc34)CC2)nc1 [Compound 71, N-Methyl-2-((2-(((1s,4s)-4-((7-morpholino-1,6-naphthyridin-5-yl)oxy)cyclohexyl)amino)pyrimidin-5-yl)oxy)acetamide] | < 0.5 | – | 10 to 500 | 10 to 500 | < 8.2 | G (% remaining = 50-75%) | < 8.2 | G (% remaining = 50-75%)
O=C(COc1cnc(N[C@H]2CC[C@@H](Oc3nc(N4CCOCC4)cc4ncccc34)CC2)nc1)N1CCC1 [Compound 75, 1-(Azetidin-1-yl)-2-((2-(((1s,4s)-4-((7-morpholino-1,6-naphthyridin-5-yl)oxy)cyclohexyl)amino)pyrimidin-5-yl)oxy)ethan-1-one] | < 0.5 | – | 500 to 1000 | 500 to 1000 | < 8.2 | H (% remaining = 75-100%) | < 8.2 | G (% remaining = 50-75%)
O=C(O)c1cnc2cc(N3CCOCC3)nc(O[C@H]3CC[C@@H](n4ccnc4)CC3)c2c1 [Compound 165, 5-(((1s,4s)-4-(1H-imidazol-1-yl)cyclohexyl)oxy)-7-morpholino-1,6-naphthyridine-3-carboxylic acid] | < 0.5 | 10000 to 100000 | 10000 to 100000 | 10000 to 100000 | – | – | < 8.2 | H (% remaining = 75-100%)
O=C(NO)c1cnc2cc(N3CCOCC3)nc(O[C@H]3CC[C@@H](n4ccnc4)CC3)c2c1 [Compound 172, 5-(((1s,4s)-4-(1H-imidazol-1-yl)cyclohexyl)oxy)-N-hydroxy-7-morpholino-1,6-naphthyridine-3-carboxamide] | < 0.5 | 1000 to 10000 | 1000 to 10000 | 1000 to 10000 | – | – | > 8.2 | F (% remaining = 25-50%)
CS(=O)(=O)NC(=O)c1cnc2cc(N3CCOCC3)nc(O[C@H]3CC[C@@H](n4ccnc4)CC3)c2c1 [Compound 175, 5-(((1s,4s)-4-(1H-imidazol-1-yl)cyclohexyl)oxy)-N-(methylsulfonyl)-7-morpholino-1,6-naphthyridine-3-carboxamide] | 0.5 to 1 | 10000 to 100000 | 10000 to 100000 | 10000 to 100000 | – | – | – | –
